# Data: publication PMC6014988, “Precision therapeutic targeting of human cancer cell motility” (Nature Communications, 2018)
# Values joined by “and” are separate entries in the source; they are usually repeats but may differ in a detail not shown here. Identical values can stand only once.
# Tests used:
# 442 kinases = experiment: KINOMEscan assay; format: binding; conditions: 10 µM; negatives include MKK4, p38 MAPK, RAF1
# Method: Initial assays were performed with PC3 and PC3-M cells (PC3 cell data not shown). However, as these studies yielded similar findings, subsequent screening assays utilized only PC3-M cells. In designing chemical synthetic routes, priority was given to efficacy and toxicity parameters. Additional design features were also included in our chemical […]
# toxicity parameters. These additional design features included removal of fragments that mediated genistein binding to the estrogen receptor (ER), as determined by ER-genistein 3D x-ray crystal structures (Protein Data Base IDs:1X7R and 1X7J, for crystal structures of ERα and ERβ with bound genistein, respectively). These features also included removal of chemical fragments that are considered to increase susceptibility to rapid metabolism, especially that by the cytochrome P450 (CYP) pathway. The final feature involved incorporation of chemical characteristics previously shown to be associated with effective drugs and which together generally impart more favorable pharmacologic properties, including those described by Lipinski […]
# Supplementary Note 2. […] Three […]
# different assays systems were employed.
# Kinase assay system #1. The KINOMEscan™ assay (Ambit Biosciences). This assay evaluates 442 kinases, including 400 distinct parental kinases plus mutants known to alter activity or responsiveness. […]
# [1] = target: T1, client kinase binding to CDC37/HSP90β heterocomplexes in HEK293T cells (Homo sapiens, UniProt P08238+Q16543); experiment: LUMIER assay of client kinase binding; format: cell-based
# T1 construct: expressed in transfected cells; host or cells: HEK293T
# Method: The LUMIER assay was performed as described, using reagents generously provided by that group.
# Supplementary Figures 17. KBU2046-mediated changes in the signature of client proteins bound to HSP90β/CDC37 mediate effects upon cell motility.
# LUMIER assay (a). HEK293T cells stably transfected with HSP90β-luciferase were transfected with 1 of 420 different FLAG-tagged protein kinases, treated with 10 µM KBU2046 for 3 days, and LUMIER assays performed as described 12. All experiments had N = 5 vehicle treated control plus N = 5 KBU2046 treated separate wells of cells. Those yielding a t-test p value <0.05 […]
# in experiment #1, or those whose values were at or below baseline, were repeated in experiment […]
# hetercomplex association with KBU2046 treatment in the same direction in both experiments were selected. Of 420 kinase proteins tested, 17 (4%) met these criteria (graphically depicted in manuscript Fig. 6a). For these 17 kinases, the experiment was repeated except that HEK293T cells were treated with TGFβ for the last 24 hrs of the 3 day incubation (graphically depicted in manuscript Fig. 6b). Wound healing assay (b-d). […]
# [2] = system: human PCa PC3-M cell orthotopic implants; experiment: Murine orthotopic implantation model of human PCa, lung metastasis; format: in vivo, mouse
# Method: Prostate cancer: orthotopic implantation: Orthotopic implantation of human GFP-PC3-M PCa cells into 6–8 week male Balb/c athymic mice (Charles River Laboratories) and quantification of distant metastasis was performed as described by us[37]. Treatment with KBU2046, incorporated into Harlan Teklad 2016S® chow, began 1 week prior to implantation. Animals were excluded from the analysis if they died and/or met the criteria for killing in the 7 day post-operative period. Experimental groups were randomly assigned to cages prior to the initiation of the study. Metastasis were scored in a blinded fashion. Specifically, animals were assigned an ID number, resultant histologic slides contained a separate pathological ID number, slides were scored in a random fashion, after which the two numbers were linked up.
# [3] = system: phosphoproteins in PC3 cells; experiment: PhosphoScan LC-MS/MS of BL4176 immunoprecipitates; format: cell-based, human
# Method: The Kinoview™ and PhosphoScan™ assays were performed by Cell Signaling Technology Inc.
# Supplementary Figure 12. Identification of the 83 kDa band using a proteomic approach.
# (a) PC3 cells were pre-treated with 10 µM KBU2046 or vehicle (control) for 3 days, then treated with TGFβ for 1 hr, and the resultant cell lysates were subjected to immunoprecipitation with BL4176 (Kinoview® phospho-motif antibody). Proteins bound in this manner were analyzed in replicates of N=2 using PhosphoScan™ technology. This identified 483 unique phosphopeptide assignments from 306 parent proteins, with a mean false discovery rate of 0.30% (estimated via Sorcerer search of composite human database of forward and reverse protein entries). We only considered proteins where the average values for treatment and control were each 3 times that of background. Further, we required each of the N=2 replicate values (used to calculate the average) to be >/= 2.5 fold above background. We were only interested in situations in which protein decreased with KBU2046, and we required that decrease to be >/= 2.5 fold, compared to control.
# According to these parameters, there were 19 phospho-proteins whose expression decreased in cells treated with KBU2046, compared to control. These are depicted above. Recognizing that each of these proteins may have value, we elected to remain focused on the 83 kDa protein, and therefore only considered proteins +/- 5 kDa of this value. Only heat shock protein 90 (HSP90)β
# T1 sequence (P08238 whole entry): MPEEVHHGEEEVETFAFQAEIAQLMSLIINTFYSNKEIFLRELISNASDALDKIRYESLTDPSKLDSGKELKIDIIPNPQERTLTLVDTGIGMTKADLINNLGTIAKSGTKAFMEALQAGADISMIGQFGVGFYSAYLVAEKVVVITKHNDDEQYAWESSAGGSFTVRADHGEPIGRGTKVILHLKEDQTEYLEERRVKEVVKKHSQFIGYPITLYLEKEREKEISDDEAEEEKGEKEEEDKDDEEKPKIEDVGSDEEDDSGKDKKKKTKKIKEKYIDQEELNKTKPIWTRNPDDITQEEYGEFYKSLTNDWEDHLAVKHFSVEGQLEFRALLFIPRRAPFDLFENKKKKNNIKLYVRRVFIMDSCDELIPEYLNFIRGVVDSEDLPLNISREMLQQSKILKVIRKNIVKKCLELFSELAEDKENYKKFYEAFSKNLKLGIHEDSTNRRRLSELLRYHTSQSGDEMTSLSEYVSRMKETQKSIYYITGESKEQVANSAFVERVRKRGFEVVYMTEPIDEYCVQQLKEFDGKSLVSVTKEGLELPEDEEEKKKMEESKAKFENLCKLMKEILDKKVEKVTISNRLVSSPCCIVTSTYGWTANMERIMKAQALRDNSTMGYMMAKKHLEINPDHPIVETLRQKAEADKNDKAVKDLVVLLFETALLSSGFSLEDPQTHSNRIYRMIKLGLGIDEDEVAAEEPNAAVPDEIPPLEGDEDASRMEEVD
# T1 sequence (Q16543 whole entry): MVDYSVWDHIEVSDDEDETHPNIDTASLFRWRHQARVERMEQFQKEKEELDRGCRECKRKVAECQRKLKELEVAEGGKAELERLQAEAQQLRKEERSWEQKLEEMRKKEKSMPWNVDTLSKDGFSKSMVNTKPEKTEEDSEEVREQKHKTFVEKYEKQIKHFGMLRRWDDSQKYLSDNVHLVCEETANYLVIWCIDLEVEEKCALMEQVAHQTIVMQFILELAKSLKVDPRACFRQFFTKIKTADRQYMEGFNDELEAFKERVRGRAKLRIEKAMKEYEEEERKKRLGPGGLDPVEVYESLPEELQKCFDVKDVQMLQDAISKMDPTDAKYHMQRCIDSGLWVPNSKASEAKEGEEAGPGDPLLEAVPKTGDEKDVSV
structure (smiles),measurement,setting,value
"O=C1c2ccccc2OCC1c1ccc(F)cc1 (racemic) [KBU2046, (±)-3(4-fluorophenyl)chroman-4-one]",inhibition of kinase binding to immobilized substrate,442 kinases,completely negative
same,number of kinases with decreased binding,"[1]; 10 µM, 3 days",7
same,number of kinases with increased binding,"[1]; 10 µM, 3 days",10
same,RAF1 binding to complexes,[1]; TGFβ-treated cells,decreased binding
same,RIPK1 binding to complexes,[1]; TGFβ-treated cells,decreased
same,SGK3 binding to complexes,[1]; TGFβ-treated cells,increased
same,share of client proteins with affected binding,[1]; as stated in rebuttal letter,1%
same,CK2 binding to the HSP90β/CDC37 heterocomplex,[1]; in cells,not alter the binding of CK2
same,share of kinases with significantly changed binding,[1]; of 420 kinase proteins screened,4%
same,number of kinases with significantly changed binding,"[1]; of 420 kinase proteins screened, 10 µM, 3 days",17
same,decrease in metastasis,"[2]; KBU2046 in chow, dose-dependent",up to 92%
same,suppression of metastasis,[2]; at a plasma concentration of 24 nM,92% and > 90%
same,primary tumor growth,"[2]; tumor weight, mice of Fig. 2a",does not inhibit primary tumor cell growth
same,"fold change, MFAP1",[3]; AALDALNT*DDENDEEEYEAWK,-21.8 fold
same,"fold change, UBL5",[3]; CNT*DDTIGDLKK,-2.9 fold
same,"fold change, PITSLRE",[3]; DLLS*DLQDIS*DSER,-3.3 fold
same,"fold change, VAMP1",[3]; DQKLS*ELDDR,-3.6 fold
same,"fold change, PIMT",[3]; DRPHAS*GT*DGDES*EEDPPEHKPSK,-4.7 fold
same,"fold change, PIMT",[3]; DRPHASGT*DGDES*EEDPPEHKPSK,-3.0 fold
same,"fold change, HSP90B",[3]; EIS*DDEAEEEKGEKEEEDKDDEEKPK,-6.6 fold
same,"fold change, FIP1L1",[3]; ERDHS*PTPSVFNS*DEER,-2.9 fold
same,"fold change, IWS1",[3]; GHHVT*DSENDEPLNLNAS*DSESEELHR,-3.2 fold
same,"fold change, NIN",[3]; HVLS*DLEDDEVR,-3.1 fold
same,"fold change, PGRMC2","[3]; LLKPGEEPS*EYT*DEEDTKDHNK, PC3, 10 µM 3 days, TGFβ 1 hr",-2.5 fold
same,"fold change, LEO1",[3]; MQNT*DDEERPQLS*DDER,-3.4 fold
same,"fold change, NudC",[3]; NGSLDSPGKQDT*EEDEEEDEKDKGK,-2.5 fold
same,decrease in abundance of phosphorylated Ser226 on HSP90β,"[3]; PC3 cells, KBU2046 then TGFβ",6.6 fold
same,"fold change, BAT2D1",[3]; S*ES*SDFEVVPK,-2.7 fold
same,"fold change, RBM5",[3]; SEDGYHS*DGDYGEHDYR,-2.7 fold
same,"fold change, CLASP2",[3]; SRS*DIDVNAAAGAK,-2.4 fold
same,"fold change, SSB",[3]; TKFAS*DDEHDEHDENGATGPVK,-4.5 fold
same,"fold change, SEC62",[3]; VGPGNHGTEGS*GGERHS*DTDS*DRR,-2.8 fold
same,"fold change, SEC62",[3]; VGPGNHGTEGSGGERHS*DT*DSDRR,-2.6 fold
